In BindingDB's records for patent US11117900 (Vertex Pharmaceuticals, 2021) one finds Ki data, which are given here for one molecule.

The experiment has as its target Serine/threonine-protein kinase ATR (Homo sapiens, UniProt Q13535). The experiment can be described thus: Inhibition Assay. Here is the method:
Compounds were screened for their ability to inhibit ATR kinase using a radioactive-phosphate incorporation assay. Assays were carried out in a mixture of 50 mM Tris/HCl (pH 7.5), 10 mM MgCl2 and 1 mM DTT. Final substrate concentrations were 10 μM [γ-33P]ATP (3 mCi 33P ATP/mmol ATP, Perkin Elmer) and 800 μM target peptide ([…]) (SEQ ID NO:1).Assays were carried out at 25° C. in the presence of 5 nM full-length ATR. An assay stock buffer solution was prepared containing all of the reagents listed above, with the exception of ATP and the test compound of interest. 13.5 μL of the stock solution was placed in a 96 well plate followed by addition of 2 μL of DMSO stock containing serial dilutions of the test compound (typically starting from a final concentration of 15 μM with 3-fold serial dilutions) in duplicate (final DMSO concentration 7%). The plate was pre-incubated for 10 minutes at 25° C. and the reaction initiated by addition of 15 μL [γ-33P]ATP (final concentration 10 μM).The reaction was stopped after 24 hours by the addition of […] containing 2 mM ATP. A multiscreen phosphocellulose filter 96-well plate (Millipore, Cat no. MAPHNOB50) was pretreated with 100 μL 0.2M phosphoric acid prior to the addition of […] of the stopped assay mixture. The plate was washed with 5×2004 0.2M phosphoric acid. […]

Sequence of Serine/threonine-protein kinase ATR (Q13535 whole entry): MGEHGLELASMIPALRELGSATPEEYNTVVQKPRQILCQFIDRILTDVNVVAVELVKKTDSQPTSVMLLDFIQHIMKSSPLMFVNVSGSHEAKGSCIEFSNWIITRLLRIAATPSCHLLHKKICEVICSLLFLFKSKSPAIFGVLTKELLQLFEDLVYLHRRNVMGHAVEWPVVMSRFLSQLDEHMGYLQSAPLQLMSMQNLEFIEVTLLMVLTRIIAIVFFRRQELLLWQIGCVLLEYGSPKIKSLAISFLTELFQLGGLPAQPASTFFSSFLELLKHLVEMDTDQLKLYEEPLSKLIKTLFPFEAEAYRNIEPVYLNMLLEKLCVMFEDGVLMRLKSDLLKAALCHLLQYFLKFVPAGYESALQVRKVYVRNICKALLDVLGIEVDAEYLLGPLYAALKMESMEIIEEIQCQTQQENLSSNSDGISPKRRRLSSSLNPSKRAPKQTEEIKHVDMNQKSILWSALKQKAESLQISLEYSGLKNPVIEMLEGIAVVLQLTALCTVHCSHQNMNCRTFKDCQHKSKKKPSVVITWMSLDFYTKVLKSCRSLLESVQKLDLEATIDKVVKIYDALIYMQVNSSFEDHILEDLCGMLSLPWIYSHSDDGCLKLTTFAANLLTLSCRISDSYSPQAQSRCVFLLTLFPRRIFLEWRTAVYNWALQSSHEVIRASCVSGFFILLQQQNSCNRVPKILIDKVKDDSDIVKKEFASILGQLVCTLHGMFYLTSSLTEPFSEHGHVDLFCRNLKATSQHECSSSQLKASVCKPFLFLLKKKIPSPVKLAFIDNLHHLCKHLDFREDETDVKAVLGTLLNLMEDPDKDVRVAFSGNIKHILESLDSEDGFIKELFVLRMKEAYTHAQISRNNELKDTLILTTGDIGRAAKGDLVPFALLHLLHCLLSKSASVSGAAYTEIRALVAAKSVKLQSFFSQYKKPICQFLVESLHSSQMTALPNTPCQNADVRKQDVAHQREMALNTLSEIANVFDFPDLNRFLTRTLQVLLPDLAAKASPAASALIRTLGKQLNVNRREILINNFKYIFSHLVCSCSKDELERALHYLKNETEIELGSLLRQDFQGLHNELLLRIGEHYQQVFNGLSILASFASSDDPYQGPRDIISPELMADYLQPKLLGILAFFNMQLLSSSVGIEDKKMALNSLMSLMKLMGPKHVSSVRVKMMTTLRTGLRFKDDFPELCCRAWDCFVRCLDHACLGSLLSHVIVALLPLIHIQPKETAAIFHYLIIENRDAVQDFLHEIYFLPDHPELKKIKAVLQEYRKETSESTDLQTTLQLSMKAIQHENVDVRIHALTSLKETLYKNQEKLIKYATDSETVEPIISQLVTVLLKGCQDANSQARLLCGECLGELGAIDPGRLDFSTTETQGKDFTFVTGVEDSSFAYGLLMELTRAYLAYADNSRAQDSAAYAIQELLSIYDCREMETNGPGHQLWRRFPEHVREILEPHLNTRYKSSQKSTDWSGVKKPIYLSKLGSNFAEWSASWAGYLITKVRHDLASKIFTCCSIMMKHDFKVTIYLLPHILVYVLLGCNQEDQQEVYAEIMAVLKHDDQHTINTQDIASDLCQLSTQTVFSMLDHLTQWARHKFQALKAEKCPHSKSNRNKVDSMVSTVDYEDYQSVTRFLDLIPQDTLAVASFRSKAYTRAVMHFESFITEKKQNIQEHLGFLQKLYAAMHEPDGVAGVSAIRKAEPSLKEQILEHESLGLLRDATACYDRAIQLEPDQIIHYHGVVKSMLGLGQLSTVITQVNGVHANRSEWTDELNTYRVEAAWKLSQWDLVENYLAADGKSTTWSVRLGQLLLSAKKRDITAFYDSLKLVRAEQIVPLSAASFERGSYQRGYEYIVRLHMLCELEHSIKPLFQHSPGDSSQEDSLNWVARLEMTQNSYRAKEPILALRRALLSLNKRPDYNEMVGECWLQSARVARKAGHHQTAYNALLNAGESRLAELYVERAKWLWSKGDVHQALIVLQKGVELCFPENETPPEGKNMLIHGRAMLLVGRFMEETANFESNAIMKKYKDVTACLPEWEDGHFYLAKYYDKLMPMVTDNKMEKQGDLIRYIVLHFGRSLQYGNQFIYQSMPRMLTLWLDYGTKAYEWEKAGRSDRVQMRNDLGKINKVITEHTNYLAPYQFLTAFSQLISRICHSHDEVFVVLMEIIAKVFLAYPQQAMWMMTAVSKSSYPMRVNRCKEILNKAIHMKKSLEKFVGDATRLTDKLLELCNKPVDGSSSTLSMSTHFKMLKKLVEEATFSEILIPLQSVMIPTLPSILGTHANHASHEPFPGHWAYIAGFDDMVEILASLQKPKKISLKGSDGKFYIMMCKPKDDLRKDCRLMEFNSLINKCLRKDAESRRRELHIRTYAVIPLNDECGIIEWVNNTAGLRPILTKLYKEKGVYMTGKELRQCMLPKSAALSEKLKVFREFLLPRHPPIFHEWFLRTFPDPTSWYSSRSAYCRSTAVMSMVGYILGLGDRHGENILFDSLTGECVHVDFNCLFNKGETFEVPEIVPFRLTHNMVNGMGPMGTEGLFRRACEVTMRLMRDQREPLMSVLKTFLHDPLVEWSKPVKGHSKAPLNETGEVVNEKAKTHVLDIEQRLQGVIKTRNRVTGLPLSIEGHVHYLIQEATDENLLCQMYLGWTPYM

What is called Ki is a dissociation constant, usually derived from enzyme kinetics or from competition with a known ligand. High values mean a looser hold on the target, low ones a stronger hold on the target. `C[N+]1([O-])CCCC(c2ccncc2NC(=O)c2c(N)nn3cc(F)cnc23)C1` (stereo unspecified) [US11117900, Compound I-C-9]: the inhibitory constant (Ki) entry is “in the range around 505 nM”.
